From PubChem BioAssay (NCI)
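GI50: concentration for 50% inhibition of growth. TGI denotes the concentration required for complete inhibition of growth.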

Tests used:
Experiment in all cases: NCI anticancer screen, dose series, 384-well format
A498 renal = test system: A498 renal
KM12 colon = test system: KM12 colon
SNB-19 CNS = test system: SNB-19 CNS
SF-539 CNS = test system: SF-539 CNS
SK-MEL-5 melanoma = test system: SK-MEL-5 melanoma
DU-145 prostate = test system: DU-145 prostate
HS 578T breast = test system: HS 578T breast
ACHN renal = test system: ACHN renal
T-47D breast = test system: T-47D breast
PC-3 prostate = test system: PC-3 prostate
NCI-H226 lung = test system: NCI-H226 lung
NCI-H322M lung = test system: NCI-H322M lung
OVCAR-8 ovarian = test system: OVCAR-8 ovarian

Q: With `Nc1ncn(C2OC(CO)C(O)C2O)c(=O)n1` (stereo unspecified) as the compound, how does the GI50 (A498 renal) read?
A: Its GI50 is 2500 nM.

Q: And the TGI (A498 renal)?
A: Its TGI is 11.9 µM.

Q: And the GI50 (KM12 colon)?
A: Its GI50 is 2540 nM.

Q: What about the TGI (KM12 colon) of the same compound?
A: The TGI was 11.8 µM.

Q: What about the GI50 (SNB-19 CNS) of the same compound?
A: Its GI50 is 4.47 µM.

Q: And the TGI (SNB-19 CNS)?
A: Its TGI is over 42.2 µM.

Q: And the GI50 (SF-539 CNS)?
A: Its GI50 is 2070 nM.

Q: What about the TGI (SF-539 CNS) of the same compound?
A: Its TGI is 6.09 µM.

Q: What about the GI50 (SK-MEL-5 melanoma) of the same compound?
A: The GI50 was 628 nM.

Q: And the TGI (SK-MEL-5 melanoma)?
A: The TGI was 2120 nM.

Q: What about the GI50 (DU-145 prostate) of the same compound?
A: Its GI50 is 1100 nM.

Q: What about the TGI (DU-145 prostate) of the same compound?
A: The TGI was 6.53 µM.

Q: And the GI50 (HS 578T breast)?
A: Its GI50 is 1380 nM.

Q: And the TGI (HS 578T breast)?
A: The TGI was 7.12 µM.

Q: What about the GI50 (ACHN renal) of the same compound?
A: The GI50 was 1300 nM.

Q: And the TGI (ACHN renal)?
A: Its TGI is 17 µM.

Q: What about the GI50 (T-47D breast) of the same compound?
A: Its GI50 is 4.67 µM.

Q: And the TGI (T-47D breast)?
A: Its TGI is over 37.6 µM.

Q: What about the GI50 (PC-3 prostate) of the same compound?
A: The GI50 was 4.16 µM.

Q: What about the TGI (PC-3 prostate) of the same compound?
A: Its TGI is 42.1 µM.

Q: And the GI50 (NCI-H226 lung)?
A: Its GI50 is 4.46 µM.

Q: And the TGI (NCI-H226 lung)?
A: Its TGI is 27.8 µM.

Q: And the GI50 (NCI-H322M lung)?
A: The GI50 was 1520 nM.

Q: What about the TGI (NCI-H322M lung) of the same compound?
A: The TGI was 25.7 µM.

Q: What about the GI50 (OVCAR-8 ovarian) of the same compound?
A: The GI50 was 1990 nM.

Q: What about the TGI (OVCAR-8 ovarian) of the same compound?
A: The TGI was 17.8 µM.
